The target in one series is T1, MPC (Homo sapiens, UniProt O95563+Q9Y5U8).
T1 sequence (Q9Y5U8 1-109): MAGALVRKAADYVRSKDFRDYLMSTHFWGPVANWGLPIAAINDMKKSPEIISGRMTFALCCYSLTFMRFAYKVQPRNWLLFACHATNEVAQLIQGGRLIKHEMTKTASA
T1 sequence (O95563 1-127): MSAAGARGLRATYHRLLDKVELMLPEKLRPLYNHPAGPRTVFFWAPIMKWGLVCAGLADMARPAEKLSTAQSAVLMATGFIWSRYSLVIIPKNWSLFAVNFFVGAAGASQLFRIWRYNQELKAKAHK
To be noted: variety of cell types (ref 27); cited from earlier work.

Another series deals with T2, FBS (Bos taurus).
T2 construct: host or cells: FBS in culture medium
To be noted: as previously reported (ref 44); cited from earlier work.

A further series deals with K562 cells. The series can be described thus: Viability (Annexin V/7AAD) and CFC assays of vector control versus PC knockout K562 cells. To be noted: 72 hours; 600 nm imatinib or 100 nm omacetaxine. It is filed as cell-based, human. As for the experimental part:
(a) Western blot of PC and loading control (tubulin) from vector control or PC knockout K562 cells. (b) Proliferation of K562 cells from A. Shown is average and SEM from 3 independent experiments. (c) Fractional labelling from ^13C6 glucose into indicated metabolites of PC knockout cells are shown (n=3) after 24 hours. Plots were generated using Autoplotter, average and SD are plotted. Statistical analyses were conducted on the m+5 fraction. An ordinary one-way ANOVA was used with Dunnett's test used to correct for multiple comparisons. (d) Cells viability was measured using Annexin V and 7AAD. Cells were either left untreated (UT) or exposed for 72 hours to 600 nm imatinib or 100 nm omacetaxine (OMA). Shown is average and SEM from 4 independent experiments. An ordinary one-way ANOVA was used with Dunnett's test used to correct for multiple comparisons. (e) Colony Forming Cell (CFC) potential of control and […] cells. Cells were either left untreated (UT) or exposed for 72 hours to 600 nm imatinib. Shown is average and SEM from 4 independent experiments. An ordinary one-way ANOVA was used with Dunnett's test used to correct for multiple comparisons. […]

The test system of a further series is KCL22 cell line. The series can be described thus: Imatinib sensitivity of PC knockout KCL22 cell line. It is filed as cell-based, human. The note with it: data not shown.

The structures appear in SMILES notation.

T2 sequence (P02769 25-607): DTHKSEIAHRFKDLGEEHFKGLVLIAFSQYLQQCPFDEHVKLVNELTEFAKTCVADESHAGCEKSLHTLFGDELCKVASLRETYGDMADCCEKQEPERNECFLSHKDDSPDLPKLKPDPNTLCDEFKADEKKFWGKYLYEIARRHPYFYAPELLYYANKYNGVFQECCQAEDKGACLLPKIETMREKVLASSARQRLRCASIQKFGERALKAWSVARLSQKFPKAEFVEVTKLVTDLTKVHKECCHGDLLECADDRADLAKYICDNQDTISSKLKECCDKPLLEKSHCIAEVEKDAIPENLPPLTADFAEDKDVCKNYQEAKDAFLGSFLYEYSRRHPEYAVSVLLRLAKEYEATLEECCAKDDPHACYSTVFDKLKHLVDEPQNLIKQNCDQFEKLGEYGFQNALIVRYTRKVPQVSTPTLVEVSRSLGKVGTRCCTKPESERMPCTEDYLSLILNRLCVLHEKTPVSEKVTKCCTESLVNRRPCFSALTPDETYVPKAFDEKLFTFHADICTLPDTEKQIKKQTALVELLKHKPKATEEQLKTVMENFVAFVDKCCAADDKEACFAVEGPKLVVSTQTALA

For the compound `CCc1ccc(C(=O)COc2ccc(CC3SC(=O)NC3=O)cc2)nc1` (stereo not shown) [MSDC-0160], the “inhibition of MPC activity” value on MPC is given as “specifically inhibit MPC activity”. Besides, the “binding to FBS” value with FBS (Bos taurus) was “high FBS binding”.
With `Cc1ccc(NC(=O)c2ccc(CN3CCN(C)CC3)cc2)cc1Nc1nccc(-c2cccnc2)n1` [imatinib], the “sensitisation of K562 to the drug by PC ablation, viability and CFC assays” value with K562 cells is on record as “sensitised”. Besides, in the series with KCL22 cell line, the “sensitivity to the drug after knockout of PC in KCL22” value was “failed to increase sensitivity”.

The values are drawn from patent US20260014129A1, “MITOCHONDRIAL PYRUVATE METABOLISM INHIBITORS FOR TREATING CHRONIC MYELOID LEUKEMIA” (The University Court of the University of Glasgow, priority 2022, published 2026).
